Series [1] deals with T1, Oxytocin receptor (Homo sapiens, UniProt P30559).
T1 sequence (P30559 whole entry): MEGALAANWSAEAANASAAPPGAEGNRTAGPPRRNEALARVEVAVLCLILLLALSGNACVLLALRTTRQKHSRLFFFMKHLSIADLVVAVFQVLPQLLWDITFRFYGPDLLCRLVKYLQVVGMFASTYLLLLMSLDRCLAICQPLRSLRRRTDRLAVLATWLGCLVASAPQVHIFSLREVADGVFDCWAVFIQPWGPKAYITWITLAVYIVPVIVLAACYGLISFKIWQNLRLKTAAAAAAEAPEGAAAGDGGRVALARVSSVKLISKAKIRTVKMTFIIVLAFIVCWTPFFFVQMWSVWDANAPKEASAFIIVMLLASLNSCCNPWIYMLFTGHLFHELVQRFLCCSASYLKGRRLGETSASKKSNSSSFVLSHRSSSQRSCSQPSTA
The series can be described thus: Ability to displace [3H]oxytocin from human OT receptor (hOT).

A short description of series [2]: Bioavailability in dog. The class given is ADME, organism-based, Canis lupus familiaris. The settings on record: in vivo.
The nature of series [3]: The pharmacokinetic parameter, clearance was reported in dog after intravenous administration. The format is ADME, organism-based, Canis lupus familiaris. The settings on record: in vivo.
Series [4] has as its target T1, Oxytocin receptor. The series can be described thus: Compound was tested for its ability to displace [3H]oxytocin from human Oxytocin receptor.

Take `O=C(c1ccc2occc2c1)N1CCC(N2C(=O)OCc3ccccc32)CC1`: at Oxytocin receptor [1], the Ki is 251 nM.
On the same count and under the same terms, with `O=C(c1ccc2[nH]ccc2n1)N1CCC(N2C(=O)OCc3ccccc32)CC1` the figure was 794 nM.
As for `CS(=O)(=O)N1CCC[C@@H]1Cc1coc2cc(C(=O)N3CCC(N4C(=O)OCc5ccccc54)CC3)ccc12`, the Ki on Oxytocin receptor [1] was 200 nM.
As for `CS(=O)(=O)N1CCN(Cc2cc3cc(C(=O)N4CCC(N5C(=O)OCc6ccccc65)CC4)ccc3o2)CC1`, the bioavailability in series [2] is 100%. At Oxytocin receptor [1], this compound gave a Ki of 63.1 nM. Besides, the clearance in series [3] is 7 mL/min/kg.
With `O=C(CN1CCCC1=O)NCc1cc2cc(C(=O)N3CCC(N4C(=O)OCc5ccccc54)CC3)ccc2o1`, the Ki on Oxytocin receptor [1] is 25.1 nM. This compound registered a clearance in series [3] of 34 mL/min/kg.
With `CN(CCn1ccc2cc(C(=O)N3CCC(N4C(=O)OCc5ccccc54)CC3)ccc21)S(C)(=O)=O`, the Ki at Oxytocin receptor [1] was 39.8 nM.
For `CC(=O)N1CCC(c2cc3cc(C(=O)N4CCC(N5C(=O)OCc6ccccc65)CC4)ccc3o2)CC1`, in series [2], the bioavailability was found to be 49%. For the same compound, the Ki at Oxytocin receptor [1] was 63.1 nM. In series [3], this compound had a clearance of 6 mL/min/kg.
For `CN1CC(=O)N(CC(=O)NCc2cc3cc(C(=O)N4CCC(N5C(=O)OCc6ccccc65)CC4)ccc3o2)C1=O`, at Oxytocin receptor [1], the affinity corresponds to a Ki of 3.16 nM. Besides, in series [3], the clearance amounted to 20 mL/min/kg.
Compound `O=C(c1ccc2cc[nH]c2c1)N1CCC(N2C(=O)OCc3ccccc32)CC1` showed a Ki at Oxytocin receptor [1] of 200 nM.
On the same count and under the same terms, to `CN(CCCn1ccc2cc(C(=O)N3CCC(N4C(=O)OCc5ccccc54)CC3)ccc21)S(C)(=O)=O` belongs 158 nM.
In turn, `CN(Cc1cc2cc(C(=O)N3CCC(N4C(=O)OCc5ccccc54)CC3)ccc2o1)C(=O)CN1C(=O)CNC1=O` showed a bioavailability in series [2] of 12%. At Oxytocin receptor [1], this compound gave a Ki of 25.1 nM. The same compound came in with a clearance in series [3] of 15 mL/min/kg.
`CN(CCn1cnc2cc(C(=O)N3CCC(N4C(=O)OCc5ccccc54)CC3)ccc21)S(C)(=O)=O` gave a Ki on Oxytocin receptor [1] of 398 nM.
Turning to `COc1cc(OC2CCN(C(C)=O)CC2)ccc1C(=O)N1CCC(N2C(=O)OCc3ccccc32)CC1`, the Ki at Oxytocin receptor [1] was 10 nM.
As for `O=C(c1ccc2[nH]ccc2c1)N1CCC(N2C(=O)OCc3ccccc32)CC1`, the affinity on Oxytocin receptor [1], expressed as Ki, was 200 nM.
On the same count and under the same terms, to `CC(=O)N(C)CCn1ccc2cc(C(=O)N3CCC(N4C(=O)OCc5ccccc54)CC3)ccc21` belongs 63.1 nM; to `O=C(c1ccc2ccoc2c1)N1CCC(N2C(=O)OCc3ccccc32)CC1`, 398 nM.
Regarding `CC(=O)NCCc1cc2cc(C(=O)N3CCC(N4C(=O)OCc5ccccc54)CC3)ccc2o1`, the bioavailability in series [2] was 27%. The compound further showed a Ki at Oxytocin receptor [1] of 39.8 nM. The compound further showed a clearance in series [3] of 9 mL/min/kg.
For `CC(=O)NCC(=O)NCc1cc2cc(C(=O)N3CCC(N4C(=O)OCc5ccccc54)CC3)ccc2o1`, in that order: 16%, 15.8 nM and 18 mL/min/kg.
The compound `CC(=O)N1CCC[C@@H]1Cn1ccc2cc(C(=O)N3CCC(N4C(=O)OCc5ccccc54)CC3)ccc21` gave a Ki at Oxytocin receptor [1] of 158 nM.
`CC(=O)N1CCN(Cc2cc3cc(C(=O)N4CCC(N5C(=O)OCc6ccccc65)CC4)ccc3o2)CC1` registered a bioavailability in series [2] of 44%. Further, at Oxytocin receptor [1], the affinity corresponds to a Ki of 79.4 nM. This compound had a clearance in series [3] of 11 mL/min/kg.
For `O=C(CN1C(=O)CNC1=O)NCc1cc2cc(C(=O)N3CCC(N4C(=O)OCc5ccccc54)CC3)ccc2o1`, in that order: 8%, 6.31 nM and 17 mL/min/kg.
For `CS(=O)(=O)N1CCC(c2cc3cc(C(=O)N4CCC(N5C(=O)OCc6ccccc65)CC4)ccc3o2)CC1`, in that order: 69%, 79.4 nM and 9 mL/min/kg.
`Cc1nc(-c2ccncc2)sc1C(=O)N1CCC(N2C(=O)OCc3ccccc32)CC1` had an inhibition constant Ki on Oxytocin receptor [1] of 126 nM.
On the same count and under the same terms, with `Cn1ccc2cc(C(=O)N3CCC(N4C(=O)OCc5ccccc54)CC3)ccc21` the figure was 126 nM.
Same read-out and setting: with `Cc1c[nH]c2ccc(C(=O)N3CCC(N4C(=O)OCc5ccccc54)CC3)cc12` the figure was 794 nM; with `CC(=O)NCCn1ccc2cc(C(=O)N3CCC(N4C(=O)OCc5ccccc54)CC3)ccc21`, 398 nM.
Consider `CC(=O)NCc1cc2cc(C(=O)N3CCC(N4C(=O)OCc5ccccc54)CC3)ccc2o1`, for which the Ki on Oxytocin receptor [1] was 63.1 nM. Further, the clearance in series [3] worked out at 8 mL/min/kg.
Compound `CN1CCC(=O)N(CC(=O)NCc2cc3cc(C(=O)N4CCC(N5C(=O)OCc6ccccc65)CC4)ccc3o2)C1=O` showed a Ki at Oxytocin receptor [1] of 3.98 nM. For the same compound, the clearance in series [3] worked out at 27 mL/min/kg.
`CS(=O)(=O)N1CCC[C@@H]1Cn1ccc2cc(C(=O)N3CCC(N4C(=O)OCc5ccccc54)CC3)ccc21`: the inhibition constant Ki at Oxytocin receptor [1] is 20 nM.
On Oxytocin receptor [1], `Cc1nc(-c2cccs2)ncc1C(=O)N1CCC(N2C(=O)OCc3ccccc32)CC1` gave a Ki of 158 nM.
At Oxytocin receptor [1], `CC(=O)N1CCCC(c2cc3cc(C(=O)N4CCC(N5C(=O)OCc6ccccc65)CC4)ccc3o2)C1` (centres undefined) showed a Ki of 200 nM.
The compound `Cc1cc2cc(C(=O)N3CCC(N4C(=O)OCc5ccccc54)CC3)ccc2[nH]1` gave a Ki on Oxytocin receptor [1] of 126 nM.
`CC(=O)N1CCC[C@@H]1c1cc2cc(C(=O)N3CCC(N4C(=O)OCc5ccccc54)CC3)ccc2o1` gave an inhibition constant (Ki) on Oxytocin receptor [1] of 25.1 nM. In series [3], this compound gave a clearance of 31 mL/min/kg.
Regarding `CC1(C)NC(=O)N(CC(=O)NCc2cc3cc(C(=O)N4CCC(N5C(=O)OCc6ccccc65)CC4)ccc3o2)C1=O`, the affinity on Oxytocin receptor [1], expressed as Ki, was 15.8 nM. This compound had a clearance in series [3] of 20 mL/min/kg.
For `CS(=O)(=O)NCCn1ccc2cc(C(=O)N3CCC(N4C(=O)OCc5ccccc54)CC3)ccc21`, on Oxytocin receptor [1], the Ki was 316 nM.
At Oxytocin receptor [1], `O=C(Cc1cccnc1)NCc1cc2cc(C(=O)N3CCC(N4C(=O)OCc5ccccc54)CC3)ccc2o1` had a Ki of 25.1 nM. Besides, the clearance in series [3] was determined as 49 mL/min/kg.
For `Cc1cc(C(=O)N2CCC(N3C(=O)OCc4ccccc43)CC2)cc2ccn(C[C@H]3CCCN3S(C)(=O)=O)c12`, at Oxytocin receptor [1], the Ki is 10 nM.
On the same count and under the same terms, with `O=C(c1ccc2ncsc2c1)N1CCC(N2C(=O)OCc3ccccc32)CC1` the figure was 794 nM.
Still for that read-out and setting: to `CC1OC(=O)N(CC(=O)NCc2cc3cc(C(=O)N4CCC(N5C(=O)OCc6ccccc65)CC4)ccc3o2)C1=O` (centres undefined) belongs 25.1 nM.
On the same count and under the same terms, to `Cc1c(C)n(C[C@H]2CCCN2S(C)(=O)=O)c2ccc(C(=O)N3CCC(N4C(=O)OCc5ccccc54)CC3)cc12` belongs 398 nM.
Take `CS(=O)(=O)N1CCC[C@H]1Cn1ccc2cc(C(=O)N3CCC(N4C(=O)OCc5ccccc54)CC3)ccc21`: on Oxytocin receptor [4], the Ki is 126 nM.

A word on the Ki: it is a dissociation constant, usually derived from enzyme kinetics or from competition with a known ligand. One may read the bioavailability as dose-corrected exposure relative to a reference, in per cent. The low end stands for poor availability, the high end for good availability. What is called clearance is a measure of how efficiently the substance is removed, as volume per time.
